SMILES strings stand for the structures. The source made the active and inactive calls.

As a reminder, the AC50 is the midpoint of the concentration-response curve, whichever way the signal moves. What is called CC50 is the concentration at which the toxic effect on the cells reaches its halfway point. Broadly, the IC50 is the point on the concentration scale where inhibition reaches its midpoint.

For assay [1], the system named is INS1. Put plainly: INS-1E survival protection against cytokine death – cell-based, luminescence, retest, dose response (AID 449756).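 Also: cell death triggered by IL-1 beta plus TNF-alpha plus IFN-gamma mixture; protective hits raise ATP signal compared with cytokine alone wells.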 The class given is functional. Particulars: Rattus norvegicus.
Assay [2] can be described thus: fluconazole-exposed Candida albicans growth modulators – fluorescence, retest, confirmation (AID 2467). The class given is functional, cell-based.
In assay [3] the target is T1, High affinity choline transporter 1 (Homo sapiens, UniProt Q9GZV3).
T1 sequence (Q9GZV3 whole entry): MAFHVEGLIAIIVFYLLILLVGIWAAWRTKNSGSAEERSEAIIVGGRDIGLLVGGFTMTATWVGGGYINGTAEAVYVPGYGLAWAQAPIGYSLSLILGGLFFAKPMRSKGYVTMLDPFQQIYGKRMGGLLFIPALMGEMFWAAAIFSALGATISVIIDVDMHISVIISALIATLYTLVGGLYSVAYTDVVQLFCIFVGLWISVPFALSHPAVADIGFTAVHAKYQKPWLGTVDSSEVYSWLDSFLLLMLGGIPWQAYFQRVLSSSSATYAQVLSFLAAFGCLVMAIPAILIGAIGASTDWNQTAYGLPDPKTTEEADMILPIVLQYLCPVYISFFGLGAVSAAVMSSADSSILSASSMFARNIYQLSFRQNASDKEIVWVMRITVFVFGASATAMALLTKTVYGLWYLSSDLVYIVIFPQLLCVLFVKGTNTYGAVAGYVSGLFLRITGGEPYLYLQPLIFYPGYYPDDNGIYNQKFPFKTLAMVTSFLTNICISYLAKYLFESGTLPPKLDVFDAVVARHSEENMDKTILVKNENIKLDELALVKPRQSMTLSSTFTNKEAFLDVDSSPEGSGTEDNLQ
Put plainly: human choline transporter potentiators, potency – cell-based, 10-point CRC, membrane potential dye, dose response (AID 602376). The class given is functional.

Assay [4] can be described thus: Trypanosoma cruzi growth suppression in host cells – NIH3T3 host cells, beta-gal luminescence, confirmation (AID 2044).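 Also: intracellular parasites grown in NIH/3T3 mouse fibroblasts as host cells; luminescent beta-galactosidase reporter signal from transgenic T. cruzi replicating inside host cells; inhibitors lower the luminescence signal.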 The class given is functional, cell-based.
A short description of assay [5]: NIH3T3 cell viability loss – ATP luminescence, mouse fibroblasts, counter-screen, dose response (AID 2010).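 Also: cells exposed to compound for about 90 hours before reading.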 Format: functional, cell-based.
Assay [6] can be described thus: NIH-3T3 fibroblast cytotoxicity, dose response, cytotoxicity control, cell-based, fluorescence, Alamar Blue, secondary assay (AID 2327).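 Also: NIH-3T3 mouse fibroblasts cultured with fluconazole at 8 µg/mL.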 Format: functional.
A short description of assay [7]: THP-1 cell cytotoxicity, cytotoxicity control, set 6 (AID 602433). Format: functional. Conditions: Mycobacterium tuberculosis.
The nature of assay [8]: viability loss in Vero cells – cell-based, purified and synthesized samples, set 8, cytotoxicity control for M. tuberculosis inhibitor project (AID 602431). Format: functional. Particulars: Mycobacterium tuberculosis.
A short description of assay [9]: HepG2 cell cytotoxicity, cytotoxicity control, set 6 (AID 602432). Format: functional. Particulars: Mycobacterium tuberculosis.
Assay [10] in a line: Counterscreen for antagonists of the orexin 1 receptor (OX1R; HCRTR1): Fluorescence-based cell-based high throughput dose response assay to identify antagonists of the parental CHO cell line. [Related pubchem assays (depositor defined):AID434989, AID435008, AID463079, AID485270, AID492963, AID492964, AID492965, AID493232, AID504699, AID504701]. The class given is functional. (Counterscreens check selectivity or assay interference.)

In assay [11] the target is T2, Corticotropin-releasing factor receptor 2/Corticotropin-releasing factor-binding protein (Homo sapiens, UniProt P24387+Q13324).
T2 sequence (Q13324 whole entry): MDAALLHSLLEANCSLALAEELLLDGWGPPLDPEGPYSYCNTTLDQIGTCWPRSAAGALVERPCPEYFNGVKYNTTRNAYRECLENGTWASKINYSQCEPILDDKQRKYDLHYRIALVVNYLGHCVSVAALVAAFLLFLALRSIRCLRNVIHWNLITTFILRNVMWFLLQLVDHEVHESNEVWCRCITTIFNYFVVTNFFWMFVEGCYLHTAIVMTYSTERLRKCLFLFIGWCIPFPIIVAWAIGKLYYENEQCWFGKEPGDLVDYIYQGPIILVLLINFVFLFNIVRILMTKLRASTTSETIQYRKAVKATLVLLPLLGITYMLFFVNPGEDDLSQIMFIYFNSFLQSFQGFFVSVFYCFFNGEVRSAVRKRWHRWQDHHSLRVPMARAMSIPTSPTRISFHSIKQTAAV
T2 sequence (P24387 whole entry): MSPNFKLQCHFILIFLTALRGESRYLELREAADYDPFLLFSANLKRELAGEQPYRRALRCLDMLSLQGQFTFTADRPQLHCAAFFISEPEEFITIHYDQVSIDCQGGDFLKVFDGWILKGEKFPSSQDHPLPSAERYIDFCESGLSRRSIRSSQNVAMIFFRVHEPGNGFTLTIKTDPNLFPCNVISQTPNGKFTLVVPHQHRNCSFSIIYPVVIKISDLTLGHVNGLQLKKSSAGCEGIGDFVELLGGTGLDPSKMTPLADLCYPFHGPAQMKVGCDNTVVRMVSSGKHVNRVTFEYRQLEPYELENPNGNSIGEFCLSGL
Put plainly: activators of CRF receptor 2 with binding protein – uHTS hits, confirmation (AID 602473). Format: functional. Particulars: read-out: EC50_Mean.

Assay [12] has as its target T3, Orexin/Hypocretin receptor type 1 (Homo sapiens, UniProt O43613). Put plainly: Homogeneous Time Resolved Fluorescence (HTRF)-based cell-based high throughput dose response assay for antagonists of the orexin 1 receptor (OX1R; HCRTR1). [Related pubchem assays (depositor defined):AID434989, AID435008, AID463079, AID485270, AID492963, AID492964, AID492965, AID493232, AID504717, AID504718]. Format: functional.

Assay [13] has as its system CHO-K1. Briefly: Counterscreen for antagonists of the orexin 1 receptor (OX1R; HCRTR1): Homogeneous time resolved fluorescence (HTRF)-based cell-based dose response assay to identify antagonists of the parental CHO-K1 cell line. [Related pubchem assays (depositor defined):AID434989, AID435008, AID463079, AID485270, AID492963, AID492964, AID492965, AID493232, AID504699, AID504701]. Conditions: Cricetulus griseus. The class given is functional.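 Also: potency for inhibition of ATP-stimulated IP1 production as antagonists.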

Assay [14] deals with T4, Orexin receptor type 2 (Homo sapiens, UniProt O43614). Briefly: Counterscreen assay for antagonists of the orexin 1 receptor (OX1R; HCRTR1): Homogeneous Time Resolved Fluorescence (HTRF)-based cell-based dose response assay for antagonists of the orexin 2 receptor (OX2R; HCRTR2), run by assay provider. The class given is functional.
Assay [15] deals with T3, Orexin/Hypocretin receptor type 1. Put plainly: Fluorescence-based cell-based high throughput dose response assay for antagonists of the orexin 1 receptor (OX1R; HCRTR1). [Related pubchem assays (depositor defined):AID434989, AID435008, AID463079, AID485270, AID492963, AID492964, AID492965, AID493232, AID504717, AID504718]. The class given is functional.
The target in assay [16] is T4, Orexin receptor type 2. Put plainly: Counterscreen assay for antagonists of the orexin 1 receptor (OX1R; HCRTR1): Fluorescence-based cell-based dose response assay for antagonists of the orexin 2 receptor (OX2R; HCRTR2), run by assay provider. The class given is functional.
For assay [17], the target named is T5, V-type proton ATPase subunit c' (Saccharomyces cerevisiae S288c, UniProt P32842). Put plainly: Dose Response of Small Molecules that Regulate V-ATPase Proton Transport in Yeast using pHLuorin, Powder Set1. Format: functional. Conditions: read-out: EC50_MICROM.
Assay [18] addresses T5, V-type proton ATPase subunit c'. Put plainly: Dose Response with BCECF Assay for V-ATPase inhibitors that increase vacuolar pH, Powder Set 1. Format: functional. Particulars: read-out: EC50_MICROM.
A short description of assay [19]: viability of uninfected HEp-2 cells – cell-based, HTS, cytotoxicity control for RSV inhibitor project, dose response (AID 2410). Particulars: human respiratory syncytial virus. The class given is functional.
Assay [20] addresses Protein disulfide-isomerase (Homo sapiens, UniProt P07237). Briefly: inhibition of PDI-driven insulin aggregation – biochemical, turbidity, absorbance, cherry-picked samples, dose response (AID 602350). The class given is functional.

T4 sequence (O43614 whole entry): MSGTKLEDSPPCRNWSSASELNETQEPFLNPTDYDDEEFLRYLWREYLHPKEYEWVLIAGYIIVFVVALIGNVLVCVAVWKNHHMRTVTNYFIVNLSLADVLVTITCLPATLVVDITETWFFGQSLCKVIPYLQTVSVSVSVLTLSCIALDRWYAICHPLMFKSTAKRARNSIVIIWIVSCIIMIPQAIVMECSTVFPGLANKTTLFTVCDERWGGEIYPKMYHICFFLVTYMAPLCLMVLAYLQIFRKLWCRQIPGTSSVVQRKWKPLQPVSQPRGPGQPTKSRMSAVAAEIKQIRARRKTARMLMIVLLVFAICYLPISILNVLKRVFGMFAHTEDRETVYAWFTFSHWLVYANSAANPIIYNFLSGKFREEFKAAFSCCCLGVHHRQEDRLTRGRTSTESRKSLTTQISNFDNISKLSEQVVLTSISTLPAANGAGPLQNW
T3 sequence (O43613 whole entry): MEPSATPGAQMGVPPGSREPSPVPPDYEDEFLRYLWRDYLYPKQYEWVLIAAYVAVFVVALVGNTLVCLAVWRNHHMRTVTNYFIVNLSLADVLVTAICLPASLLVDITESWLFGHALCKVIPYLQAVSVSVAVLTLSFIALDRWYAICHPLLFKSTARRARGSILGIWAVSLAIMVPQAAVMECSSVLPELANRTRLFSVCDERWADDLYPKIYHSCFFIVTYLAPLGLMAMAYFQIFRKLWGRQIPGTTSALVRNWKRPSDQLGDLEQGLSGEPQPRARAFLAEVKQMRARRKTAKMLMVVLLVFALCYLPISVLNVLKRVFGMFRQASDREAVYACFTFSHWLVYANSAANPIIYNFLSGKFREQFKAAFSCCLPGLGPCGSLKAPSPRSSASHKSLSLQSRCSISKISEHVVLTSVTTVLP
T5 sequence (P32842 whole entry): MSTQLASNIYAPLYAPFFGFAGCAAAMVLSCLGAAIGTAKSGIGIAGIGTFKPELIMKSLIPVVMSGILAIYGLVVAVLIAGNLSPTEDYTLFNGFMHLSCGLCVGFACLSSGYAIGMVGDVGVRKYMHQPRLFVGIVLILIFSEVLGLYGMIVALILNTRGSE
Sequence of Protein disulfide-isomerase (P07237 whole entry): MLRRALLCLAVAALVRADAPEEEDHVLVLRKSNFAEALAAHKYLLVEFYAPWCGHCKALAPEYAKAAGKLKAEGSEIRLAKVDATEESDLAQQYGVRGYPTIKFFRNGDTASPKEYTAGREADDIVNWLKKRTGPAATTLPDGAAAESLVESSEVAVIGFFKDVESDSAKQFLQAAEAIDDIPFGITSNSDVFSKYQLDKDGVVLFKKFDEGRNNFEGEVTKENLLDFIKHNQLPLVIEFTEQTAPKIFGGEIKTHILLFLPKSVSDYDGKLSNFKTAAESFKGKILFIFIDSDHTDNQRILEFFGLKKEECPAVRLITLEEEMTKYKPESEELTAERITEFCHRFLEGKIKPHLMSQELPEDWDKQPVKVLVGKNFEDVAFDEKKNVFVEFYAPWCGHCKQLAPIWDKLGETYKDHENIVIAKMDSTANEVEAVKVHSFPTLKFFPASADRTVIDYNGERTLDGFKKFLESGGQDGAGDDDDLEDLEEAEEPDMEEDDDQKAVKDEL

As to `COc1ccc(C)cc1Nc1n[n+](-c2ccccc2)c(-c2ccc(OC)c(OC)c2OC)s1`, the half-maximal activity concentration (AC50) in [1] was 11.2 µM (active). In addition, the EC50 in [2] is 2.71 µM (active); in assay [3], 12.1 µM (active); in assay [4] it was 0.215 µM (active); in assay [5] it was > 30 µM (not active); in assay [6] it was > 160 µM (inactive).

For `O=C(NCc1ccc(C(=O)N2CCC(c3ccccc3)CC2)cc1)Nc1ccc(Cl)cc1`, the CC50 in [7] was 24.7 µM (active); in assay [8] it was 40.1 µM (active); in assay [9], 35 µM (active).

For `Cc1cc(-c2ccc(N3CCOCC3)cc2)nc2ccccc12`, the IC50 in assay [10] is > 49.8 µM (inactive); in assay [12], 2.37 µM (active); in [13] it was > 66.2 µM (inactive); in [14], 19.3 µM (inactive); in assay [15], 5.3 µM (active); in assay [16] it was > 88.8 µM (inactive). In addition, the EC50 in [11] is > 53 µM (inactive).

As for `O=C(c1ccc([N+](=O)[O-])o1)N1CCN(c2nc3c(Cl)cccc3s2)CC1`, the EC50 in assay [17] was 3.53 µM (active); in assay [4] it was 0.254 µM (active); in [18] it was 0.86 µM (active); in assay [5], 20.6 µM (active). Further, in [19], the CC50 is > 50 µM (active).

As for `Cc1c(O)ccc2c(CN3CCN(CCO)CC3)cc(=O)oc12`, in [20], the AC50 is 8.66 µM (active).

The values above are taken from ChEMBL document CHEMBL1201862, “PubChem BioAssay data set” (2004).
